Data reported in patent publication US20190231730A1, “TREATMENT OF A DISEASE MEDIATED BY ARACHIDONIC ACID OR AN EICOSANOID” (priority 2016, published 2019).

Experiments:
[1] = system: patients with Ankylosing Spondylitis; settings: three patients
[2] = system: patients with ulcerative colitis; settings: one patient
[3] = system: patients suffering from Cystic Fibrosis; settings: six patients; topical under arm pits, once monthly; 0.01-1 microgram in DMSO
Description: (§1) The formulation was applied under arm pits (topically) to patients suffering from Cystic Fibrosis, psoriasis, ulcerative colitis and Ankylosing Spondylitis. Six patients suffering from Cystic fibrosis were administered this formulation once monthly.

patient with psoriasis = experiment: Topical formulation in patients with psoriasis; settings: approximately 30 patients
Description: as §1

[4] = system: oesophageal adenocarcinoma; settings: rat model; LTA4 hydrolase inhibitor, inhibition of LTB4 synthesis; cited from earlier work

| SMILES | symptoms of Ankylosing Spondylitis [1] | decrease in all ulcerative mediations [2] | reversal of symptomatology in ulcerative colitis [2] | clinical benefit and symptoms in Cystic Fibrosis [3] | duration of symptom-free state in psoriasis (patient with psoriasis) | healing of psoriatic lesions on skin (patient with psoriasis) | burden of oesophageal adenocarcinoma [4] |
| --- | --- | --- | --- | --- | --- | --- | --- |
| CCCCC/C=C\C/C=C\C/C=C\CC#CCCCC(=O)O [5,6-dehydro arachidonic acid] | helped them with the symptoms | 100% | 100% | significant clinical benefit and reduction of symptoms | remained symptom free for years | completely healed their psoriatic lesions |  |
| CC(C)C[C@H](NC(=O)[C@@H](O)[C@H](N)Cc1ccccc1)C(=O)O [bestatin] |  |  |  |  |  |  | reduced the burden of oesophageal adenocarcinoma |
